In patent publication US11351178B2, “Selective HDAC6 inhibitors” (ITALFARMACO S.P.A., priority 2017, dated 2022):
“Also recorded” adds a separate entry of the source.

Assays:
[1] = tested on: CD4 and CD8 T cells of CT-26 bearing mice; experiment: Ex vivo stimulation of splenocytes with CT-26 tumor peptides, IFN-γ and TNF-α by CD4 and CD8 T cells (ELISPOT); assay type: in vivo, BALB/c mice; settings: splenocytes stimulated with CT-26 specific peptides, FIGS. 4 and 5
Description: Splenocytes of animal treated with Compounds 8 and 10 and the combination with anti PD-1 Ab were stimulated with CT-26 derived tumor peptides and the production of IFN-γ and TNF-α by CD4 T cells was quantified by ELISPOT.
Splenocytes of animal treated with Compound 8 and 10 and the combination with anti PD-1 Ab were stimulated with CT-26 derived tumor peptides and the production of IFN-γ and TNF-α by CD8 Tcells was quantified by ELISPOT.
Adult BALB/c mice were injected s.c. with 1×10^6 CT26 tumor cells (diluted to 100 ul with phosphate-buffered saline). One week later, mice were given daily compounds 8 and 10 p.o. at 50 mg/Kg and/or injected with anti-PD1 antibody at 10 mg/Kg. At time of sacrifice, spleens were taken to analyze ex vivo, the tumor immune response. Spleen cells were stimulated with a mixture of CT-26 tumor specific peptides recognized in the context of both MHC I and MHC II. Thus, using this ex vivo stimulation, a specific tumor response mediated by CD4 and CD8 T cells can be detected.
The results are shown in FIGS. 4 and 5 where the percentage of CD4 and CD8 T cells that produce IFN-γ and TNF-α are indicated for each treatment group.

[2] = tested on: PD-L1 expression in iDC (GMCSF-IL-4 stimulated monocytes); experiment: Inhibition of the expression of PD-L1 in in vitro derived dendritic cells; assay type: cell-based; settings: human monocytes, GMCSF-IL-4, 5 days, FIG. 1
Description: FIG. 1: The inhibition of PD-L1 expression in iDC (GMCSF-IL-4 stimulated monocytes). Human monocytes were treated with HDAC6 inhibitors and stimulated with GMCSF-IL-4 for 5 days. After incubation, cells were collected and labelled with an anti PD-L1 antibody. Cells were then washed and fluorescence data were acquired using a flow cytometer (BD FACSVerse). Values on the graphs represent the mean of 3 experiment carried out on 3 different donors (n=3). The expression of PD-L1 is represented by the geometric mean of the fluorescence. *=P<0.05 determined by Student's t test.
To obtain in vitro derived DCs, human monocytes purified from PBMC, were treated for 5 days with GMCSF (50 ng/ml) and IL-4 (10 ng/ml) in the presence of two selective HDAC6 inhibitors described in this invention (compounds 10 and 19) and the HDAC inhibitor example 43 of WO 2012/106343. Control cells were treated with the inhibitor's vehicle. This procedure induces the formation of immature dendritic cells (iDCs) that express PD-L1 (Brown J A et al. J Immunol. 2003; 170:1257-66). After 5 days, iDCs were analyzed for the expression of the inhibitory marker […].

[3] = tested on: EMT6, CT26, 4T1 murine tumors; experiment: In vivo murine tumor models (FIG. 2); design: species or system mouse; settings: compounds 50 mg/kg oral gavage once a day 5 days a week, anti PD-1 10 mg/kg ip three times a week
From the text: Four different immune-oncology mouse models of cancer were used to evaluate the in vivo efficacy of compounds 8 and 10 of this invention. In this experiment, we compared the efficacy of an anti PD-1 antibody with that shown by the HDAC6 inhibitors. Anti PD-1 targets the immune checkpoint PD-1/PD-L1 axis and is an established immunotherapy in a growing number of malignancies (Pardoll D. M., Nature Reviews Cancer, 2012, 12: 252-264).
Tumors were induced in immunocompetent mice using the following cell lines: • EMT6 (murine breast cancer) • CT26 (murine colon cancer • 4T1 (triple negative murine breast cancer)
• Therapeutic treatment started when tumor nodules reached approximately 3 mm in diameter. • Compounds 8 and 10 were administered by oral gavage once a day for 5 days a week at 50 mg/kg. • Anti PD-1 antibody was administered three times a week by ip injection at 10 mg/kg.

Compound | ex vivo tumor specific T cell immune response [1] | PD-L1 expression in iDC [2] | tumor growth in vivo [3]
Cn1c(Sc2ccc(C(=O)NO)cc2)nnc1-c1cccs1 [comp. 10, N-hydroxy-4-((4-methyl-5-(thiophen-2-yl)-4H-1,2,4-triazol-3-yl)thio)benzamide] | greater neo antigen immune response | reduced the PD-L1 expression in a statistically significant way | comparable efficacy in reducing tumor growth; also recorded: reduce tumor growth in vivo
O=C(NO)c1cc(F)c(Cn2nnc(-c3ccco3)n2)c(F)c1 [comp. 19, 3,5-difluoro-4-((5-(furan-2-yl)-2H-tetrazol-2-yl)methyl)-N-hydroxybenzamide] | – | reduced the PD-L1 expression in a statistically significant way | –
O=C(NO)c1ccc(Cn2nnnc2-c2cccs2)cc1 [comp. 8, N-hydroxy-4-((5-(thiophen-2-yl)-1H-tetrazol-1-yl)methyl)benzamide] | greater neo antigen immune response | – | comparable efficacy in reducing tumor growth; also recorded: reduce tumor growth in vivo
